Values belong to the molecule of their own block, whether it stands above or below them. Square brackets hold non-standard residues; d marks the D form. Peptide text beside a SMILES is read from it. * marks the point of attachment. Sta = CC(C)C[C@H](N)[C@@H](O)CC(=O)O; AMC = Cc1cc(=O)oc2cc(N*)ccc12; Isovaleryl = CC(C)CC(=O)*; Nle = CCCC[C@H](N)C(=O)O
Experiments:
purified S1P(983)-C [1] = molecular target: T1, purified S1P(983)-C (Cricetulus griseus, UniProt Q9Z2A8, T875N); experiment: Fluorogenic peptide assay for S1P activity (cleavage of MCA-conjugated peptides); assay type: biochemical, hamster; conditions: for Relative Activity: Ac-VFRSLK-MCA set at 1.0; for cleavage of the peptide: result in words
T1 construct: Truncated S1P (amino acids 1-983); GGR linker (NotI site); made in house; host or cells: SRD-12B cells (mutant CHO cells lacking S1P) stably transfected with pCMV-S1P(983)-Myc-His (TR-3117, 'S1P(983) cells'); secreted into the medium and purified on Ni-NTA
T1 sequence (Q9Z2A8 187-983 T875N): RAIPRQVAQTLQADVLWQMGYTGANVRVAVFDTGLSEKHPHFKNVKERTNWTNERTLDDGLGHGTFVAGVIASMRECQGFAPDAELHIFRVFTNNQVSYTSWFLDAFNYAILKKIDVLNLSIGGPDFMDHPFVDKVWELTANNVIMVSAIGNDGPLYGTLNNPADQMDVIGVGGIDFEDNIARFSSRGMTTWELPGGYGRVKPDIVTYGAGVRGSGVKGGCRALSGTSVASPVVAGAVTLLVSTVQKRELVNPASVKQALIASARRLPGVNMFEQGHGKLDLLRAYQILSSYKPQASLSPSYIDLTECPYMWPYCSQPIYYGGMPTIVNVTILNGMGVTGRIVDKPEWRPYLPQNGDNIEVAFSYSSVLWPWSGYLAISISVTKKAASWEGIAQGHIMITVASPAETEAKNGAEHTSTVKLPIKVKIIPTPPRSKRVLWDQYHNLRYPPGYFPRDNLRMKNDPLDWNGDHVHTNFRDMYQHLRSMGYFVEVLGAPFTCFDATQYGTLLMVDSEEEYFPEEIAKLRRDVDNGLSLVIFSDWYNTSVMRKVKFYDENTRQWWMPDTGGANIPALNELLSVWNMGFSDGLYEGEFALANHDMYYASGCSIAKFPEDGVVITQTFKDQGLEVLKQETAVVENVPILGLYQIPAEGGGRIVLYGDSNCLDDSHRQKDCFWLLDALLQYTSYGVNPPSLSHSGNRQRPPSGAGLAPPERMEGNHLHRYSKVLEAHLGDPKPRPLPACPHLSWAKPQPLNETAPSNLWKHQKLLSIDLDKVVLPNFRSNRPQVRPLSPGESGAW
Method: (§1) Fluorogenic Peptide Assay for S1P Activity
S1P activity was measured fluorometrically with MCA-conjugated peptidyl substrates. Each reaction was carried out in 0.2 ml of assay buffer (25 mM Tris, 25 mM Mes, 25 mM acetic acid, and 1 mM CaCl2 adjusted to pH 8.0 with concentrated NaOH). Reactions contained MCA-peptide (final concentration 100 μM, added in 2 μl DMSO) and […] of purified S1P(983)-C. After incubation for 0.5-5 h at 37° C., each reaction was terminated by addition of 1 ml of ice-cold 5 mM sodium EDTA. The liberated 7-amino-4-methyl-coumarin (AMC) was measured with a Perkin-ElmerLS-30 luminescence spectrometer (360 nm excitation, 460 nm emission). A standard curve of fluorescence intensity was generated with different concentrations of AMC (Promega).
Similar substrates have been used to assay furin, prohormone convertases, and other subtilisin-related enzymes (Nakayama, 1997). […] The sequence of this peptide corresponds to the sequence at Site-B of S1P, which is known to be cleaved by S1P in an autocatalytic reaction. Fluorescence rose linearly with time for 5 h. […] This differs from the observations with furin and the prohormone convertases, whose pH optima are generally in the range of 6-7 (Nakayama, 1997).
The indicated fluorogenic peptide-MCA (100 μM) was incubated with 3 μg of purified S1P(983)-C at 37° C. for 5 h. The S1P activity of Ac-VFRSLK-MCA (SEQ ID NO:13, 930 pmol per min/mg protein) was set at 1.0, and the activity of the other substrates was expressed relative to this value. Each value represents the average of duplicate incubations, which varied from each other by <10%.

purified S1P(983)-C [2] = molecular target: T1, purified S1P(983)-C; experiment: Effect of protease inhibitors on S1P(983)-C mediated cleavage of Ac-VFRSLK-MCA; assay type: biochemical, hamster; conditions: for inhibition of S1P(983)-C: result in words
Method: as §1
S1P activity was measured fluorometrically with MCA-conjugated peptidyl substrates. […] After incubation for 0.5-5 h at 37° C., each reaction was terminated by addition of 1 ml of ice-cold 5 mM sodium EDTA. The liberated 7-amino-4-methyl-coumarin (AMC) was measured with a Perkin-ElmerLS-30 luminescence spectrometer (360 nm excitation, 460 nm emission). A standard curve of fluorescence intensity was generated with different concentrations of AMC (Promega).

[3] = 100 μM peptide-MCA, 3 μg S1P(983)-C, 37° C., 5 h
[4] = 1 mM, 100 μM Ac-VFRSLK-MCA, 37° C., 5 h
[5] = 3 mM, 100 μM Ac-VFRSLK-MCA, 37° C., 5 h
[6] = 10 mM, 100 μM Ac-VFRSLK-MCA, 37° C., 5 h

Structure (SMILES): CCCC[C@@H](C=O)NC(=O)[C@H](CC(C)C)NC(=O)[C@H](CC(C)C)NC(C)=O [ALLN, N-acetyl-leucinal-leucinal-norleucinal] (Ac-Leu-Leu-[Nle]-aldehyde)
AMC Liberated (purified S1P(983)-C [2]; 0.1 mM, 100 μM Ac-VFRSLK-MCA, 37° C., 5 h): 811 pmol/tube
remaining activity at 100 µM (purified S1P(983)-C [2]; pH 8, 0.1 mM, 100 μM Ac-VFRSLK-MCA, 37° C., 5 h, read-out: AMC Liberated, % control): 97%
inhibition of S1P(983)-C (purified S1P(983)-C [2]): resistant

Structure (SMILES): NCCc1ccc(S(=O)(=O)F)cc1 [Pefabloc ®]
AMC Liberated (purified S1P(983)-C [2]; [4]): 731 pmol/tube
AMC Liberated, % control (purified S1P(983)-C [2]; [4]): 87 % control
AMC Liberated (purified S1P(983)-C [2]; [5]): 366 pmol/tube
AMC Liberated, % control (purified S1P(983)-C [2]; [5]): 44 % control
AMC Liberated (purified S1P(983)-C [2]; [6]): 60 pmol/tube
AMC Liberated, % control (purified S1P(983)-C [2]; [6]): 7 % control
inhibition of S1P(983)-C (purified S1P(983)-C [2]): inhibited by high concentrations

Structure (SMILES): N=C(N)c1ccc(CS(=O)(=O)F)cc1 [APMSF, (4-amidinophenyl)-methancsulfonyl fluoride]
AMC Liberated (purified S1P(983)-C [2]; [4]): 793 pmol/tube
AMC Liberated, % control (purified S1P(983)-C [2]; [4]): 95 % control
inhibition of S1P(983)-C (purified S1P(983)-C [2]): resisted

Structure (SMILES): CC(C)CC(=O)N[C@H](C(=O)N[C@H](C(=O)N[C@@H](CC(C)C)[C@@H](O)CC(=O)N[C@@H](C)C(=O)N[C@@H](CC(C)C)[C@@H](O)CC(=O)O)C(C)C)C(C)C [Pepstatin] (Isovaleryl-VV[Sta]A[Sta]-OH)
AMC Liberated (purified S1P(983)-C [2]; 0.01 mM, 100 μM Ac-VFRSLK-MCA, 37° C., 5 h): 798 pmol/tube
remaining activity at 10 µM (purified S1P(983)-C [2]; pH 8, 0.01 mM, 100 μM Ac-VFRSLK-MCA, 37° C., 5 h, read-out: AMC Liberated, % control): 95%
inhibition of S1P(983)-C (purified S1P(983)-C [2]): resistant

Now from value to molecule:

Relative Activity (purified S1P(983)-C [1]; [3]): < 0.1
cleavage of the peptide (purified S1P(983)-C [1]): no detectable cleavage
Structure (SMILES): CC(=O)N[C@H](C(=O)N[C@@H](Cc1ccccc1)C(=O)N[C@@H](C)C(=O)N[C@@H](CO)C(=O)N[C@@H](CC(C)C)C(=O)N[C@@H](CCCCN)C(=O)Nc1ccc2c(C)cc(=O)oc2c1)C(C)C [Ac-VFASLK-MCA, Ac-Val-Phe-Ala-Ser-Leu-Lys-MCA] (Ac-VFASLK-{AMC})

Relative Activity (purified S1P(983)-C [1]; [3]): < 0.1
cleavage of the peptide (purified S1P(983)-C [1]): did not cleave
Structure (SMILES): CC(=O)N[C@@H](CO)C(=O)NCC(=O)N[C@@H](CCCNC(=N)N)C(=O)N[C@@H](CO)C(=O)N[C@H](C(=O)N[C@@H](CC(C)C)C(=O)Nc1ccc2c(C)cc(=O)oc2c1)C(C)C [Ac-SGRSVL-MCA, Ac-Ser-Gly-Arg-Ser-Val-Leu-MCA] (Ac-SGRSVL-{AMC})

Relative Activity (purified S1P(983)-C [1]; [3]): < 0.1
Structure (SMILES): CC(=O)N[C@@H](CO)C(=O)NCC(=O)N[C@@H](CO)C(=O)NCC(=O)N[C@@H](CCCNC(=N)N)C(=O)N[C@@H](CO)C(=O)N[C@H](C(=O)N[C@@H](CC(C)C)C(=O)Nc1ccc2c(C)cc(=O)oc2c1)C(C)C (Ac-SGSGRSVL-{AMC})

Relative Activity (purified S1P(983)-C [1]; [3]): 0.47
cleavage of the peptide (purified S1P(983)-C [1]): cleaves
Structure (SMILES): CC(=O)N[C@@H](CCCNC(=N)N)C(=O)N[C@@H](CO)C(=O)N[C@@H](CC(C)C)C(=O)N[C@@H](CCCCN)C(=O)Nc1ccc2c(C)cc(=O)oc2c1 [Ac-RSLK-MCA, Ac-Arg-Ser-Leu-Lys-MCA] (Ac-RSLK-{AMC})

S1P activity (purified S1P(983)-C [1]; [3]): 930 pmol per min/mg protein
Relative Activity (purified S1P(983)-C [1]; [3]): 1.0
cleavage at pH 6 (purified S1P(983)-C [1]; pH 6): very little cleavage
pH of maximal rate of cleavage (purified S1P(983)-C [1]; pH curve, FIG. 22C): 8 pH
time over which fluorescence rose linearly (purified S1P(983)-C [1]; purified secreted S1P(983)-C, 37° C.): 5 h
Structure (SMILES): CC(=O)N[C@H](C(=O)N[C@@H](Cc1ccccc1)C(=O)N[C@@H](CCCNC(=N)N)C(=O)N[C@@H](CO)C(=O)N[C@@H](CC(C)C)C(=O)N[C@@H](CCCCN)C(=O)Nc1ccc2c(C)cc(=O)oc2c1)C(C)C [Ac-VFRSLK-MCA, Ac-Val-Phe-Arg-Ser-Leu-Lys-MCA] (Ac-VFRSLK-{AMC})
